{"source": "PubChem BioAssay (NCI)", "test_in_all_cases": "DTP human tumour cell line panel, 48 h", "key": {"786-0 renal": {"system": "786-0 renal"}, "A498 renal": {"system": "A498 renal"}, "A549 NSCLC": {"system": "A549 NSCLC"}, "ACHN renal": {"system": "ACHN renal"}, "BT-549 breast": {"system": "BT-549 breast"}, "CAKI-1 renal": {"system": "CAKI-1 renal"}, "CCRF-CEM leukemia": {"system": "CCRF-CEM leukemia"}, "COLO 205 colon": {"system": "COLO 205 colon"}, "DU-145 prostate": {"system": "DU-145 prostate"}, "EKVX NSCLC": {"system": "EKVX NSCLC"}, "HCT-116 colon": {"system": "HCT-116 colon"}, "HCT-15 colon": {"system": "HCT-15 colon"}, "HL-60(TB) leukemia": {"system": "HL-60(TB) leukemia"}, "HOP-62 NSCLC": {"system": "HOP-62 NSCLC"}, "HOP-92 NSCLC": {"system": "HOP-92 NSCLC"}, "HS 578T breast": {"system": "HS 578T breast"}, "HT29 colon": {"system": "HT29 colon"}, "IGROV1 ovarian": {"system": "IGROV1 ovarian"}, "KM12 colon": {"system": "KM12 colon"}, "LOX IMVI melanoma": {"system": "LOX IMVI melanoma"}, "M14 melanoma": {"system": "M14 melanoma"}, "MALME-3M melanoma": {"system": "MALME-3M melanoma"}, "MCF7 breast": {"system": "MCF7 breast"}, "MDA-MB-231 breast": {"system": "MDA-MB-231 breast"}, "MDA-MB-435": {"system": "MDA-MB-435"}, "MDA-N": {"system": "MDA-N"}, "MOLT-4 leukemia": {"system": "MOLT-4 leukemia"}, "NCI-H226 lung": {"system": "NCI-H226 lung"}, "NCI-H23 lung": {"system": "NCI-H23 lung"}, "NCI-H460 lung": {"system": "NCI-H460 lung"}, "NCI-H522 lung": {"system": "NCI-H522 lung"}, "NCI/ADR-RES ovarian": {"system": "NCI/ADR-RES ovarian"}, "OVCAR-3 ovarian": {"system": "OVCAR-3 ovarian"}, "OVCAR-4 ovarian": {"system": "OVCAR-4 ovarian"}, "OVCAR-5 ovarian": {"system": "OVCAR-5 ovarian"}, "OVCAR-8 ovarian": {"system": "OVCAR-8 ovarian"}, "PC-3 prostate": {"system": "PC-3 prostate"}, "RPMI-8226 leukemia": {"system": "RPMI-8226 leukemia"}, "RXF 393 renal": {"system": "RXF 393 renal"}, "SF-268 CNS": {"system": "SF-268 CNS"}, "SF-295 CNS": {"system": "SF-295 CNS"}, "SF-539 CNS": {"system": "SF-539 CNS"}, "SK-MEL-2 melanoma": {"system": "SK-MEL-2 melanoma"}, "SK-MEL-28 melanoma": {"system": "SK-MEL-28 melanoma"}, "SK-MEL-5 melanoma": {"system": "SK-MEL-5 melanoma"}, "SK-OV-3 ovarian": {"system": "SK-OV-3 ovarian"}, "SN12C renal": {"system": "SN12C renal"}, "SNB-19 CNS": {"system": "SNB-19 CNS"}, "SNB-75 CNS": {"system": "SNB-75 CNS"}, "SR leukemia": {"system": "SR leukemia"}, "SW-620 colon": {"system": "SW-620 colon"}, "T-47D breast": {"system": "T-47D breast"}, "TK-10 renal": {"system": "TK-10 renal"}, "U251 CNS": {"system": "U251 CNS"}, "UACC-257 melanoma": {"system": "UACC-257 melanoma"}, "UACC-62 melanoma": {"system": "UACC-62 melanoma"}, "UO-31 renal": {"system": "UO-31 renal"}}, "note": "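Briefly, cells in 96-well plates were exposed to five compound concentrations for 48 h, and endpoints were estimated by linear interpolation. TGI: total growth inhibition.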", "data": [{"smiles": "COc1ccc(C=O)cc1OS(=O)(=O)C(F)(F)C(F)(F)C(F)(F)C(F)(F)F", "values": [{"measurement": "TGI", "setting": "786-0 renal", "result": "> 84.1", "unit": "µM"}, {"measurement": "TGI", "setting": "A498 renal", "result": "> 68.2", "unit": "µM"}, {"measurement": "TGI", "setting": "A549 NSCLC", "result": "> 100", "unit": "µM"}, {"measurement": "TGI", "setting": "ACHN renal", "result": "> 100", "unit": "µM"}, {"measurement": "TGI", "setting": "BT-549 breast", "result": "> 100", "unit": "µM"}, {"measurement": "TGI", "setting": "CAKI-1 renal", "result": "> 100", "unit": "µM"}, {"measurement": "TGI", "setting": "CCRF-CEM leukemia", "result": 63.1, "unit": "µM"}, {"measurement": "TGI", "setting": "COLO 205 colon", "result": 62.4, "unit": "µM"}, {"measurement": "TGI", "setting": "DU-145 prostate", "result": "> 100", "unit": "µM"}, {"measurement": "TGI", "setting": "EKVX NSCLC", "result": "> 82.6", "unit": "µM"}, {"measurement": "TGI", "setting": "HCT-116 colon", "result": "> 70.4", "unit": "µM"}, {"measurement": "TGI", "setting": "HCT-15 colon", "result": "> 100", "unit": "µM"}, {"measurement": "TGI", "setting": "HL-60(TB) leukemia", "result": 21.8, "unit": "µM"}, {"measurement": "TGI", "setting": "HOP-62 NSCLC", "result": "> 79.8", "unit": "µM"}, {"measurement": "TGI", "setting": "HOP-92 NSCLC", "result": 58.6, "unit": "µM"}, {"measurement": "TGI", "setting": "HS 578T breast", "result": 68.8, "unit": "µM"}, {"measurement": "TGI", "setting": "HT29 colon", "result": "> 90.5", "unit": "µM"}, {"measurement": "TGI", "setting": "IGROV1 ovarian", "result": "> 67.5", "unit": "µM"}, {"measurement": "TGI", "setting": "KM12 colon", "result": "> 74.4", "unit": "µM"}, {"measurement": "TGI", "setting": "LOX IMVI melanoma", "result": 41.9, "unit": "µM"}, {"measurement": "TGI", "setting": "M14 melanoma", "result": "> 80.5", "unit": "µM"}, {"measurement": "TGI", "setting": "MALME-3M melanoma", "result": "> 69", "unit": "µM"}, {"measurement": "TGI", "setting": "MCF7 breast", "result": "> 100", "unit": "µM"}, {"measurement": "TGI", "setting": "MDA-MB-231 breast", "result": "> 70.3", "unit": "µM"}, {"measurement": "TGI", "setting": "MDA-MB-435", "result": 48.9, "unit": "µM"}, {"measurement": "TGI", "setting": "MDA-N", "result": 44.7, "unit": "µM"}, {"measurement": "TGI", "setting": "MOLT-4 leukemia", "result": "> 20", "unit": "µM"}, {"measurement": "TGI", "setting": "NCI-H226 lung", "result": "> 100", "unit": "µM"}, {"measurement": "TGI", "setting": "NCI-H23 lung", "result": "> 100", "unit": "µM"}, {"measurement": "TGI", "setting": "NCI-H460 lung", "result": "> 93.4", "unit": "µM"}, {"measurement": "TGI", "setting": "NCI-H522 lung", "result": "> 60.1", "unit": "µM"}, {"measurement": "TGI", "setting": "NCI/ADR-RES ovarian", "result": 58.3, "unit": "µM"}, {"measurement": "TGI", "setting": "OVCAR-3 ovarian", "result": "> 69.2", "unit": "µM"}, {"measurement": "TGI", "setting": "OVCAR-4 ovarian", "result": "> 100", "unit": "µM"}, {"measurement": "TGI", "setting": "OVCAR-5 ovarian", "result": "> 100", "unit": "µM"}, {"measurement": "TGI", "setting": "OVCAR-8 ovarian", "result": "> 100", "unit": "µM"}, {"measurement": "TGI", "setting": "PC-3 prostate", "result": "> 100", "unit": "µM"}, {"measurement": "TGI", "setting": "RPMI-8226 leukemia", "result": 54.3, "unit": "µM"}, {"measurement": "TGI", "setting": "RXF 393 renal", "result": 59.8, "unit": "µM"}, {"measurement": "TGI", "setting": "SF-268 CNS", "result": "> 100", "unit": "µM"}, {"measurement": "TGI", "setting": "SF-295 CNS", "result": 53, "unit": "µM"}, {"measurement": "TGI", "setting": "SF-539 CNS", "result": 41, "unit": "µM"}, {"measurement": "TGI", "setting": "SK-MEL-2 melanoma", "result": 43.9, "unit": "µM"}, {"measurement": "TGI", "setting": "SK-MEL-28 melanoma", "result": 97.5, "unit": "µM"}, {"measurement": "TGI", "setting": "SK-MEL-5 melanoma", "result": 30.8, "unit": "µM"}, {"measurement": "TGI", "setting": "SK-OV-3 ovarian", "result": "> 90.2", "unit": "µM"}, {"measurement": "TGI", "setting": "SN12C renal", "result": 97.5, "unit": "µM"}, {"measurement": "TGI", "setting": "SNB-19 CNS", "result": "> 100", "unit": "µM"}, {"measurement": "TGI", "setting": "SNB-75 CNS", "result": "> 90.4", "unit": "µM"}, {"measurement": "TGI", "setting": "SR leukemia", "result": "> 24.4", "unit": "µM"}, {"measurement": "TGI", "setting": "SW-620 colon", "result": "> 87.4", "unit": "µM"}, {"measurement": "TGI", "setting": "T-47D breast", "result": "> 100", "unit": "µM"}, {"measurement": "TGI", "setting": "TK-10 renal", "result": "> 82.9", "unit": "µM"}, {"measurement": "TGI", "setting": "U251 CNS", "result": 66.5, "unit": "µM"}, {"measurement": "TGI", "setting": "UACC-257 melanoma", "result": "> 100", "unit": "µM"}, {"measurement": "TGI", "setting": "UACC-62 melanoma", "result": 50.7, "unit": "µM"}, {"measurement": "TGI", "setting": "UO-31 renal", "result": "> 60.9", "unit": "µM"}]}]}
